Reference: PMC8035703, “Effect of Synchronous Versus Sequential Regimens on the Pharmacokinetics and Biodistribution of Regorafenib with Irradiation” (Pharmaceutics, 2021)
Like-named read-outs stand apart in the source and are kept apart here.

Legend:
[1] = system: Hep G2 cells; assay: Cell viability assay (MTT), Hep G2; format: cell-based; details: Homo sapiens; for IC50: MTT after 24 h, read-out: IC50 (estimated concentration at which 50% of cells were killed); for viability at 5 µM: HepG2, regorafenib 5 μM; for viability at 10 µM: HepG2, regorafenib 10 μM; for viability at 20 µM: HepG2, regorafenib 20 μM
Protocol: Human hepatoma Huh-7 and Hep G2 cell lines kindly provided by Professor Hu (Taipei Veterans General Hospital, Taiwan) were plated into 96-well plates (1 × 10^3 per well) with serum-containing medium (100 μL) for 1 day. Regorafenib at concentrations of 0, 5, 10 and 20 μmol/L (μM) was added to the plates. Then, the study groups were designed: the concurrent group (1 h after irradiation) or sequential group (24 h after irradiation) with sham RT (RT0 Gy), 2 Gy (RT2 Gy) and 9 Gy (RT9 Gy). Additionally, after 24 h, 20 μL of 5 mg/mL MTT was added to the plates and incubated for 3 h. The supernatant was discarded, the precipitate was dissolved in 200 μL DMSO, and the plates were read with a microplate reader at 570 nm and a reference wavelength of 630 nm.

[2] = Organ distribution of regorafenib in rats with or without RT; format: in vivo, Sprague-Dawley rats; details: Sprague-Dawley, rat, oral, 16 mg/kg, rat, 4 h after oral administration
Protocol: According to the formula used to translate doses from animal to human, human equivalent dose (HED, mg/kg) = animal dose (mg/kg) × animal km/human km, we calculated the daily dose of regorafenib for rats to be 16 (mg/kg/day). The rats were randomly divided into ten groups with six rats in each group. The concurrent groups treated with regorafenib 1 h after RT, in the same day, to mimic regorafenib concurrent with RT in the daily practice. The sequential groups treated with regorafenib following RT (not in the same day), to mimic RT followed by regorafenib in the daily practice. The one fraction study group included (A) a sham group, regorafenib with RT0 Gy (regorafenib × 1 d); concurrent groups treated with regorafenib 1 h after (B) RT2 Gy with 1 fraction (RT2 Gy × 1 f’x) and (D) RT9 Gy with 1 fraction (RT9 Gy × 1 f’x); and sequential groups treated with regorafenib 24 h after (C) RT2 Gy × 1 f’x and (E) RT9 Gy × 1 f’x. Continued treatment mimicking clinical practice was applied to (A) a sham group, regorafenib (p.o. (per os), q.d. × 3 d) with RT0 Gy (regorafenib × 3 d); concurrent groups treated with regorafenib (p.o., q.d. × 3 d) 1 h after (B) RT2 Gy with 3 fractions (RT2 Gy × 3 f’x) and (D) RT9 Gy with 3 fractions (RT9Gy × 3 f’x); and sequential groups treated with regorafenib 24 h (p.o., q.d. × 3 d) after (C) RT2 Gy × 3 f’x and (E) RT9 Gy × 3 f’x. (Figure 1A,B).
Organs, including the brain, liver, heart, spleen, lung and kidney, were collected, weighed and stored at −20 °C, until analysis.
The organ samples were homogenized in 50% aqueous acetonitrile (sample weight: volume = 1:5) and centrifuged at 13,000× g, for 10 min, at 4 °C. The supernatant was stored at −20 °C, until analysis. Additionally, 150 μL of IS solution (diethylstilbestrol) was combined with each organ sample (50 μL) for protein precipitation. Finally, the filtrate (20 μL) was analyzed by HPLC.

CNC(=O)c1cc(Oc2ccc(NC(=O)Nc3ccc(Cl)c(C(F)(F)F)c3)c(F)c2)ccn1 [regorafenib, Regorafenib]
IC50 ([1]; HepG2, 24 h, Hep G2, RT0 Gy, S (regorafenib added 24 h following RT)): 17.7 µM
IC50 ([1]; HepG2, 24 h, Hep G2, RT2 Gy, S (regorafenib added 24 h following RT)): 18.9 µM
IC50 ([1]; HepG2, 24 h, Hep G2, RT9 Gy, S (regorafenib added 24 h following RT)): 16.8 µM
IC50 ([1]; HepG2, Hep G2, RT0 Gy, C (regorafenib added 1 h following RT)): 9.87 µM
IC50 ([1]; HepG2, Hep G2, RT2 Gy, C (regorafenib added 1 h following RT)): 10.5 µM
IC50 ([1]; HepG2, Hep G2, RT9 Gy, C (regorafenib added 1 h following RT)): 8.43 µM
viability at 5 µM ([1]; Hep G2, RT0 Gy, C): 74.6 ± 2.4%
viability at 5 µM ([1]; Hep G2, RT0 Gy, S): 82 ± 1.9%
viability at 5 µM ([1]; Hep G2, RT2 Gy, C): 73.1 ± 11.7%
viability at 5 µM ([1]; Hep G2, RT2 Gy, S): 72.1 ± 1.7%
viability at 5 µM ([1]; Hep G2, RT9 Gy, C): 64.7 ± 11.3%
viability at 5 µM ([1]; Hep G2, RT9 Gy, S): 71 ± 5.3%
viability at 10 µM ([1]; Hep G2, RT0 Gy, C): 51.3 ± 3.1%
viability at 10 µM ([1]; Hep G2, RT0 Gy, S): 67 ± 1.3%
viability at 10 µM ([1]; Hep G2, RT2 Gy, C): 50.8 ± 7%
viability at 10 µM ([1]; Hep G2, RT2 Gy, S): 64.1 ± 1.3%
viability at 10 µM ([1]; Hep G2, RT9 Gy, C): 46.7 ± 8.9%
viability at 10 µM ([1]; Hep G2, RT9 Gy, S): 64.2 ± 4.3%
viability at 20 µM ([1]; Hep G2, RT0 Gy, C): 24.7 ± 1.2%
viability at 20 µM ([1]; Hep G2, RT0 Gy, S): 46 ± 3.4%
viability at 20 µM ([1]; Hep G2, RT2 Gy, C): 24.5 ± 2.5%
viability at 20 µM ([1]; Hep G2, RT2 Gy, S): 42.4 ± 0.8%
viability at 20 µM ([1]; Hep G2, RT9 Gy, C): 20.6 ± 1.5%
viability at 20 µM ([1]; Hep G2, RT9 Gy, S): 38.5 ± 1.9%
concentration at 4 h ([2]; brain, RT2 Gy × 1 f'x followed by regorafenib 16 mg/kg × 1 d (sequential), read-out: Concentration in brain): 80 ± 60 ng/g
concentration at 4 h ([2]; brain, RT2 Gy × 3 f'x followed by regorafenib 16 mg/kg × 3 d (sequential), read-out: Concentration in brain): 30 ± 50 ng/g
concentration at 4 h ([2]; brain, RT2 Gy × 3 f'x with regorafenib 16 mg/kg × 3 d (concurrent), read-out: Concentration in brain): 20 ± 50 ng/g
concentration at 4 h ([2]; brain, RT9 Gy × 1 f'x with regorafenib 16 mg/kg × 1 d (concurrent), read-out: Concentration in brain): 10 ± 20 ng/g
concentration at 4 h ([2]; heart, RT2 Gy × 1 f'x followed by regorafenib 16 mg/kg × 1 d (sequential), read-out: Concentration in heart): 780 ± 270 ng/g
concentration at 4 h ([2]; heart, RT2 Gy × 3 f'x followed by regorafenib 16 mg/kg × 3 d (sequential), read-out: Concentration in heart): 290 ± 180 ng/g
concentration at 4 h ([2]; heart, RT2 Gy × 3 f'x with regorafenib 16 mg/kg × 3 d (concurrent), read-out: Concentration in heart): 30 ± 30 ng/g
concentration at 4 h ([2]; heart, RT9 Gy × 1 f'x with regorafenib 16 mg/kg × 1 d (concurrent), read-out: Concentration in heart): 360 ± 330 ng/g
concentration at 4 h ([2]; kidney, RT2 Gy × 1 f'x followed by regorafenib 16 mg/kg × 1 d (sequential), read-out: Concentration in kidneys): 590 ± 270 ng/g
concentration at 4 h ([2]; kidney, RT2 Gy × 3 f'x followed by regorafenib 16 mg/kg × 3 d (sequential), read-out: Concentration in kidneys): 730 ± 440 ng/g
concentration at 4 h ([2]; kidney, RT2 Gy × 3 f'x with regorafenib 16 mg/kg × 3 d (concurrent), read-out: Concentration in kidneys): 130 ± 60 ng/g
concentration at 4 h ([2]; kidney, RT9 Gy × 1 f'x with regorafenib 16 mg/kg × 1 d (concurrent), read-out: Concentration in kidneys): 180 ± 50 ng/g
concentration at 4 h ([2]; liver, RT2 Gy × 1 f'x followed by regorafenib 16 mg/kg × 1 d (sequential), read-out: Concentration in liver): 2280 ± 750 ng/g
concentration at 4 h ([2]; liver, RT2 Gy × 3 f'x followed by regorafenib 16 mg/kg × 3 d (sequential), read-out: Concentration in liver): 1680 ± 650 ng/g
concentration at 4 h ([2]; liver, RT2 Gy × 3 f'x with regorafenib 16 mg/kg × 3 d (concurrent), read-out: Concentration in liver): 550 ± 270 ng/g
concentration at 4 h ([2]; liver, RT9 Gy × 1 f'x with regorafenib 16 mg/kg × 1 d (concurrent), read-out: Concentration in liver): 1010 ± 580 ng/g
concentration at 4 h ([2]; lung, RT2 Gy × 1 f'x followed by regorafenib 16 mg/kg × 1 d (sequential), read-out: Concentration in lung): 1270 ± 640 ng/g
concentration at 4 h ([2]; lung, RT2 Gy × 3 f'x followed by regorafenib 16 mg/kg × 3 d (sequential), read-out: Concentration in lung): 990 ± 430 ng/g
concentration at 4 h ([2]; lung, RT2 Gy × 3 f'x with regorafenib 16 mg/kg × 3 d (concurrent), read-out: Concentration in lung): 210 ± 90 ng/g
